Source: patent US9193729B2, “Inhibiting transient receptor potential ion channel TRPA1” (Cubist Pharmaceuticals, Inc., priority 2011, dated 2015)

Experiments:
[1] = test system: formalin-induced pain behavior; experiment: Formalin-induced pain behavior in vivo rodent model; design: species or system rat; conditions: i.p. administration, in words
Description: The data shown in Tables 3a, 3b, and 3c and FIG. 2 were obtained by administering a pharmaceutical composition comprising the compound of Formula (Ia) to rodents in the formalin-induced pain duration at various doses according to Example 5. Specifically, the data in Tables 3a, 3b, and 3c and FIG. 2 were obtained by intraperitoneal (i.p.) administration of compositions containing different concentrations of the compound of Formula (Ia), a comparator composition containing recited amounts of the comparator compound (e.g., 150 mg/kg of the comparator compound of Formula (II) in Table 3a) and a control composition containing the vehicle (e.g., without the compound of Formula (Ia) or a comparator compound).
The compound of Formula (Ia) and the comparator compounds of Formula (II) and Formula (III) were tested in the formalin-induced pain test reported by Dubuisson et al., Pain 1977 December; 4(2):161-74 (incorporated herein by reference in its entirety). Dubuisson et al. (1977) describe a method for assessing pain and analgesia in rats and cats. Briefly, dilute formalin (50 μL of 3% formalin) is injected into the plantar surface of the hind paw. […] The individual responsible for counting the pain behaviors in a particular study is blinded to the treatment groups.
Rats were treated with the HCl salt of Compound (Ia) at various doses (3, 10, 30, and 50 mg/kg, IP) or with the vehicle (IP).

[2] = test system: serum biomarkers of hepatotoxicity; experiment: Hepatotoxicity serum biomarker study in dogs, oral dose; assay type: in vivo, dog; conditions: for ALT level elevation: single PO dose of 50 mg/kg
Protocol: The compound of Formula (Ia) was orally dosed to […] at dose levels of 5, 15 or 50 mg/kg using 30% Sulfobutylether β-cyclodextrin as the vehicle for assessment of safety as measured via serum chemistry biomarkers of hepatotoxicity or bile duct injury FIG. 5A, showing measurements of alanine aminotranferease [ALT], aspartate aminotranferease [AST], alkaline phosphatase [ALP] and gamma-glutamyl transferase [GGT] in the dogs at each dose level (each bar represents a measurement from 1 dog in the study). […] For example, the ALT levels were elevated up to about 60-fold in male dogs and up to about 130-fold in female beagle dogs following a single PO dose of 50 mg/kg.

[3] = test system: female rats; experiment: 7-day i.p. repeat dose screening toxicity study; assay type: in vivo, rat; conditions: rats, 50 mg/kg/day i.p. for 7 consecutive days
Protocol: The compound of Formula (Ia) was evaluated in a 7-day repeat dose screening toxicity study in female rats. In order to maximize systemic exposure, rats were administered compound of Formula (Ia) i.p. at 50 mg/kg/day for 7 consecutive days, to obtain the results shown in FIG. 6. Clinical chemistry parameters were evaluated on Days 3 and 8. Histopathology was performed on select organs including the liver, kidney, spleen, and lung.

[4] = molecular target: hTRPA1 (Homo sapiens, UniProt O75762); experiment: Whole-cell patch clamp inhibition of hTRPA1; assay type: cell-based; conditions: same procedure as Example 3; species not given; read-out: IC50 in Patch Clamp Assay, TRPA1
Chain of hTRPA1 (O75762 whole entry): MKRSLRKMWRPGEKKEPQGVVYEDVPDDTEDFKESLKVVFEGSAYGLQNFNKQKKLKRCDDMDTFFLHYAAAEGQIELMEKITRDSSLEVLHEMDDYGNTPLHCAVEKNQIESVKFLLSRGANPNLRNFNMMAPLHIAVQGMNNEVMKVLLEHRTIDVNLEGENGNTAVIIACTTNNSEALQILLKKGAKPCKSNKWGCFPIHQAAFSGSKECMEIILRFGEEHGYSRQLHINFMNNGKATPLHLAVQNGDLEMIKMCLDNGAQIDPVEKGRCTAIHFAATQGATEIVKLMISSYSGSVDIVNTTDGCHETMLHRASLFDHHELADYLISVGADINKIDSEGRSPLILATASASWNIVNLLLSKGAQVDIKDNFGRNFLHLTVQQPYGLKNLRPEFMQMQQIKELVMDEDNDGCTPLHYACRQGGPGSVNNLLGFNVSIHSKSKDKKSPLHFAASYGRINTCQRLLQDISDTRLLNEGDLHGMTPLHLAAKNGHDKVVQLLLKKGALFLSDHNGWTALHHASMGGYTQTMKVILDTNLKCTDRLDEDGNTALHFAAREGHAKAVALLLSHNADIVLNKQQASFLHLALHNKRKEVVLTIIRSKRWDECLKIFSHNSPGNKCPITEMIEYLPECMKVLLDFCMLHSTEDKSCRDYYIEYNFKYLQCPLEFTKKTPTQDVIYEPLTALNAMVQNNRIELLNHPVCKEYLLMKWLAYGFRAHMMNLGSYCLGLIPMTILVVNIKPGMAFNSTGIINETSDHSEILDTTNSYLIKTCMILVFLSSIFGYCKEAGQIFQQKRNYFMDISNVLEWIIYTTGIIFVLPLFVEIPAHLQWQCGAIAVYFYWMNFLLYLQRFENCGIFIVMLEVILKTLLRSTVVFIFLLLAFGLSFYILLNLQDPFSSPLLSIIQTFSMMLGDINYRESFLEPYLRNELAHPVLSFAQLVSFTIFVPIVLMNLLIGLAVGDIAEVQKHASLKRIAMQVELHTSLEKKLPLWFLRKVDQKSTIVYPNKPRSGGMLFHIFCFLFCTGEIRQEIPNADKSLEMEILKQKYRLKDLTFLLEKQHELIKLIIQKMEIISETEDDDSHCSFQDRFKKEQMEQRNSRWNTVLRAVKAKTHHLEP
Protocol: (§1) Data for TRPA1 inhibition and the selectivity of TRPA1 inhibition was obtained by this method for the compound of Formula (Ia) and included in Table 1 and Table 2. All currents were recorded in whole-cell configuration using EPC-9 and EPC-10 amplifiers and Patchmaster software (HEKA). […] The standard pipette solution consisted of 140 mM CsAsp, 10 mM EGTA, 10 mM HEPES, 2.27 mM MgCl2, 1.91 mM CaCl2, 4 mM MgATP, and 0.1-0.3 mM Na2GTP, with pH adjusted to 7.2 with CsOH. In addition, a solution containing 145 mM CsCl, 10 mM HEPES, 10 mM EGTA and 1 mM MgCl2 (pH 7.2 adjusted with CsOH) can be used. The standard bath solution contained 150 mM NaCl, 10 mM HEPES, 10 mM glucose, 4.5 mM KCl, 1 mM EGTA, 3 mM MgCl2, with pH adjusted to 7.4 with NaOH. In some instances, 2 mM CaCl2 was added in place of EGTA and the concentration of MgCl2 was reduced to 1 mM.
(§2) Data were collected either by continuous recordings at −60 mV or by applying voltage ramps from a holding potential of 0 mV every 4 s. […] Inward and outward currents were analyzed from the ramps at −80 and 80 mV, respectively. […]
(§3) Solutions were switched using a gravity-fed continuous focal perfusion system. […] Temperatures were confirmed using a thermistor (Warner Instruments, TA-29), with temperatures at the recorded cell estimated to be within +/−2° C. of those reported. […]

[5] = molecular target: T1, hTRPV3 (Homo sapiens, UniProt Q8NET8); experiment: Patch clamp selectivity, hTRPV3; assay type: cell-based; conditions: same procedure as Example 3; species not given; read-out: IC50 in Patch Clamp Assay, TrpV3
T1 sequence (Q8NET8 1-790): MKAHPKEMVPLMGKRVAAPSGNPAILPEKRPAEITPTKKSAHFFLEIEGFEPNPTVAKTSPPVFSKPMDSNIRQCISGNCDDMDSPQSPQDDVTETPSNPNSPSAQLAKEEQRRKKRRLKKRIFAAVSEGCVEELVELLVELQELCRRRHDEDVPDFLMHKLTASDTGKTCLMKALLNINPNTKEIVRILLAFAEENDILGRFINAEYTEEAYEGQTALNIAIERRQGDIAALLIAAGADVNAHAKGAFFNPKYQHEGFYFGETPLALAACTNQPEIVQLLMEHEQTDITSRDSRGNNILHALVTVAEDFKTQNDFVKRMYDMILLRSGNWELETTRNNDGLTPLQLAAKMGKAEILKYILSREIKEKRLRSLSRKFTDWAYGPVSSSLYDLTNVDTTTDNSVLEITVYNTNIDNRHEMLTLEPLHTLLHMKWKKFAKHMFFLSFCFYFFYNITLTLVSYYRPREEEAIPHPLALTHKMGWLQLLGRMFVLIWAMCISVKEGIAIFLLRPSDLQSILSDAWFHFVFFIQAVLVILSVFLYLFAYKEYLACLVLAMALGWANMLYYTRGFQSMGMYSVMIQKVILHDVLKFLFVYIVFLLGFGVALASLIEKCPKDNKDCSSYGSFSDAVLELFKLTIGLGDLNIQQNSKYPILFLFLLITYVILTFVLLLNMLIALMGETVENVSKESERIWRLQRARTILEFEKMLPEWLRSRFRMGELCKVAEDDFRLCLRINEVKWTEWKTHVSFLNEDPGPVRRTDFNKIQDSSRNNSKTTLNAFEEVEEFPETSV
Protocol: as §1, §2, §3

[6] = molecular target: hERG (Homo sapiens, UniProt Q12809); experiment: Patch clamp selectivity, hERG; assay type: cell-based; conditions: same procedure as Example 3
Chain of hERG (Q12809 whole entry): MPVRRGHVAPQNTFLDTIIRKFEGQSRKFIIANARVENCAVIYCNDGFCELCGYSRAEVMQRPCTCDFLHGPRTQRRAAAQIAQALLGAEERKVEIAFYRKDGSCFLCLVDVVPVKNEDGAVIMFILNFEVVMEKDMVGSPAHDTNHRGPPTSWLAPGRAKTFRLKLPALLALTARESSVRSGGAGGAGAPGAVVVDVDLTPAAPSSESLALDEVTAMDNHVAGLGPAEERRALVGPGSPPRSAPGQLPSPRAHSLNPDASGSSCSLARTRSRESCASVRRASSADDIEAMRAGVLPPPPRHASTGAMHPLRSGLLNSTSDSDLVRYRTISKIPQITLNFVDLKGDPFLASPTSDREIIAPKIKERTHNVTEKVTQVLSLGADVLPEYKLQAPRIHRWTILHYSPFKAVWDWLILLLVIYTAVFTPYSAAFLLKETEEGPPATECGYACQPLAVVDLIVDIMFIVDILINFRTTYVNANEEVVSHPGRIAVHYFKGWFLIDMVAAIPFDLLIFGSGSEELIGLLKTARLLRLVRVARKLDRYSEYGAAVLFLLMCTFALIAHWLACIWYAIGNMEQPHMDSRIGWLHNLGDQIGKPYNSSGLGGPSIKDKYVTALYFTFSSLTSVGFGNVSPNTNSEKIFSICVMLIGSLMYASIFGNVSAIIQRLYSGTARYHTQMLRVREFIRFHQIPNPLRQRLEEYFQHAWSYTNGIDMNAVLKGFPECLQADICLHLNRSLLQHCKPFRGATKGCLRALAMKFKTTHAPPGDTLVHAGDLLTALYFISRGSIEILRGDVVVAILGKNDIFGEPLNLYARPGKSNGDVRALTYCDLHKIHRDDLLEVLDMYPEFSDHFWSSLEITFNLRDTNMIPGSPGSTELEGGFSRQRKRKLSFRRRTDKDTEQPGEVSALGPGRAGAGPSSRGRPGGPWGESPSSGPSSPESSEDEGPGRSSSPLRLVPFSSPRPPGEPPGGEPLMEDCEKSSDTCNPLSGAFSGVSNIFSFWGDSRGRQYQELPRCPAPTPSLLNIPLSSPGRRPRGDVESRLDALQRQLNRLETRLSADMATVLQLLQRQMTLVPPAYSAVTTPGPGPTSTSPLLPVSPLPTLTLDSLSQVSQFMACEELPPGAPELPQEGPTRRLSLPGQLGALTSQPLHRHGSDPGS
Protocol: as §1, §2, §3

[7] = molecular target: hNav1.2 (Homo sapiens, UniProt Q99250); experiment: Patch clamp selectivity, hNav1.2; assay type: cell-based; conditions: same procedure as Example 3; species not given; read-out: IC50 in Patch Clamp Assay, NaV1.2
Chain of hNav1.2 (Q99250 whole entry): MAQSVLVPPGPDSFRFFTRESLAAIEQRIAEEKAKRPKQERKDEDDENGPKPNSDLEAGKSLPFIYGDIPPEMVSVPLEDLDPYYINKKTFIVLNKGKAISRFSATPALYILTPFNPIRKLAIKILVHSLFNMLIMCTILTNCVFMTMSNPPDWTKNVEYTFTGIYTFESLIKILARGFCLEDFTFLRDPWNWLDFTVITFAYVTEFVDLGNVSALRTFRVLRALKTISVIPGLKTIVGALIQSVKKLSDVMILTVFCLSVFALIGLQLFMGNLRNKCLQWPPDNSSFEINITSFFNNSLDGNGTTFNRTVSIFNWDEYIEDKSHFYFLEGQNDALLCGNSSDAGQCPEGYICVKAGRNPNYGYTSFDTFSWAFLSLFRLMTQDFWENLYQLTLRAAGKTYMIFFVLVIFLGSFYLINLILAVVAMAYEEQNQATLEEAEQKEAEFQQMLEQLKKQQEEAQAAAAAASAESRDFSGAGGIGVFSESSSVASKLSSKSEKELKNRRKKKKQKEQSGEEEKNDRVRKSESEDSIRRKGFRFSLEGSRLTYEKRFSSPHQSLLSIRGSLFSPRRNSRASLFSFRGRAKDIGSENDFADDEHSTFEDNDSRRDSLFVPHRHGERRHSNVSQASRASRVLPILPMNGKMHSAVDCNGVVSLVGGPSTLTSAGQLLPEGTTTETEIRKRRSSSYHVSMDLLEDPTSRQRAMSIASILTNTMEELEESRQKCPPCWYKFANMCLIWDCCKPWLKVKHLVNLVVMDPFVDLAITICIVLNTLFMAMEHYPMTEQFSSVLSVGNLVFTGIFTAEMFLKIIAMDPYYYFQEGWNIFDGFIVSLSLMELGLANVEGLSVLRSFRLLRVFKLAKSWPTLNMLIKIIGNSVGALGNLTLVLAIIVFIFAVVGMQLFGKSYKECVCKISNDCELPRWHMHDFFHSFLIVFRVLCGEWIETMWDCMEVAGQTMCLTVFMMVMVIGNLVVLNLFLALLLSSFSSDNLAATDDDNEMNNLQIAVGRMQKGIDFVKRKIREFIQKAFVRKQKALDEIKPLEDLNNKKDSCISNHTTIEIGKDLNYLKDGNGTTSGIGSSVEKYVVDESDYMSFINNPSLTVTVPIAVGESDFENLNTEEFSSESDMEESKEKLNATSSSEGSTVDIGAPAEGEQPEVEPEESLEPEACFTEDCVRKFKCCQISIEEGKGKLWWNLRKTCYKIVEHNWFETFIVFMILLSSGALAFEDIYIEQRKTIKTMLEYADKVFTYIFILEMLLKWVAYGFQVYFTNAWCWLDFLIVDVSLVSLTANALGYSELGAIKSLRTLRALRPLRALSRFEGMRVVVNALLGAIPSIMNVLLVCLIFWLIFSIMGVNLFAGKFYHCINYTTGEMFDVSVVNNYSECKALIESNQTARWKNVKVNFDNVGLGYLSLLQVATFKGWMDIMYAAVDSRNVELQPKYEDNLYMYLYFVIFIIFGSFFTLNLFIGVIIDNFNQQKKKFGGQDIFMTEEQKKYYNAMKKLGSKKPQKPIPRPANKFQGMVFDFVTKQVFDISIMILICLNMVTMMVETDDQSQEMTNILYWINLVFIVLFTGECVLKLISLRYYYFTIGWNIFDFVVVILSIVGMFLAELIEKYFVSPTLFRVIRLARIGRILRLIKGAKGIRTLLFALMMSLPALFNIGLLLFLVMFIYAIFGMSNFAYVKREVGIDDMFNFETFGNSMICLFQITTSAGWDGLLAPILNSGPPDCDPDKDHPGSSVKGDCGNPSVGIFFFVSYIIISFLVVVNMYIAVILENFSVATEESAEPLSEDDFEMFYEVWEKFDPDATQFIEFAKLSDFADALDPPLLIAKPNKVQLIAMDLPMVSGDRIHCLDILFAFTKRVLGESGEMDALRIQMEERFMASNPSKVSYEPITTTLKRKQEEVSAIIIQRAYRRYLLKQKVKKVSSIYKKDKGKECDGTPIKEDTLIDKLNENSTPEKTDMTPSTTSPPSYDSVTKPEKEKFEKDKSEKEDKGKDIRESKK
Protocol: as §1, §2, §3

SMILES	duration of pain behavior compared with vehicle [1]	serum biomarkers of hepatotoxicity (ALT, AST, ALP, GGT) ([2]; dogs, 50 mg/kg PO)	ALT level elevation ([2]; female beagle dogs)	ALT level elevation ([2]; male dogs)	serum biomarkers of hepatotoxicity [3]	IC50 [4] [µM]	IC50 [5] [µM]	IC50 [6] [µM]	IC50 [7] [µM]
CC(C)c1ccc(NC(=O)Cn2cnc3c2c(=O)n(C)c(=O)n3C)cc1 [Formula (II)]	shorter durations of pain behavior than those treated with the vehicle	–	–	–	–	–	–	–	–
C[C@H]1CCCN1c1ccc(-c2csc(NC(=O)Cn3cnc4c3c(=O)n(C)c(=O)n4C)n2)cc1F [Formula (III)]	shorter durations of pain behavior than those treated with the vehicle	did elevate serum biomarkers of hepatotoxicity	up to 130 fold	up to 60 fold	did elevate serum biomarkers of hepatotoxicity	–	–	–	–
C[C@H]1CCCN1c1ncc(-c2cccc(NC(=O)Cn3cnc4[nH]c(=O)n(C)c(=O)c43)n2)cn1 [Formula (IV), reference compound]	–	–	–	–	–	9.8	> 10	> 20	> 20
